Values after ≈ are worked out from the molar mass of the structure shown. Where only a bound is given, the exact number is not on record here.

Test systems include Candida albicans; Pseudomonas aeruginosa; Staphylococcus aureus; Streptococcus agalactiae; Bacillus cereus AS1.126; Escherichia coli AS1.349; Listeria monocytogenes; Escherichia coli; Escherichia coli P4; Enterobacter cloacae; Serratia marcescens; Klebsiella aerogenes; Klebsiella pneumoniae.
Assay in all cases: ≥ marks a high value that may be exact or a test limit, other limits are often not marked, values filed in µg/mL are converted to µM
Test [1] relates to Acinetobacter calcoaceticus.
The subject of test [2] is Escherichia coli ATCC 25922.
In test [3] the test system is Xanthomonas axonopodis pv. glycines ISBF 327.
Test [4] concerns Streptococcus salivarius CGMCC 1.2498.
In test [5] the test system is Candida albicans CMCC 98001.
The subject of test [6] is Klebsiella aerogenes CGMCC 1.876.
Test [7] concerns Pseudomonas aeruginosa CGMCC 1.860.
The test system of test [8] is Streptococcus mutans CGMCC 1.2500.
In test [9] the test system is Fusobacterium nucleatum CGMCC 1.2526.
Test [10] has as its system Klebsiella pneumoniae subsp. pneumoniae CGMCC 1.176.
Test [11] has as its system Enterococcus faecium CGMCC 1.2334.
In test [12] the test system is Enterococcus faecalis CGMCC 1.595.
The test system of test [13] is Staphylococcus aureus AS1.72.
In test [14] the test system is Enterobacter cloacae CGMCC 1.58.
In test [15] the test system is Streptococcus sanguinis CGMCC 1.2497.
In test [16] the test system is Lactobacillus acidophilus CGMCC 1.1854.
The test system of test [17] is Lactococcus lactis AS1.1690.
For test [18], the system named is Staphylococcus aureus A170.
Test [19] deals with Staphylococcus aureus 007.
Test [20] relates to Salmonella enterica subsp. enterica serovar Paratyphi A.
The subject of test [21] is Staphylococcus aureus A172.
Test [22] concerns Staphylococcus epidermidis.
The subject of test [23] is Staphylococcus aureus ATCC 29213.
Test [24] deals with Staphylococcus aureus ATCC 25023.
Test [25] deals with Acinetobacter baumannii CICC 22934.
Test [26] has as its system Proteus mirabilis CICC 22931.
Test [27] deals with Cronobacter sakazakii DPC 6440.
Test [28] has as its system Listeria monocytogenes LO28.

For orientation: MIC means the least concentration at which growth counts as inhibited. Take `CC[C@H](C)[C@H](NC(=O)[C@H](C)NC(=O)[C@H](Cc1cnc[nH]1)NC(=O)[C@@H]1CCCN1C(=O)[C@@H](NC(=O)[C@H](CC(C)C)NC(=O)[C@H](CO)NC(=O)[C@H](CC(C)C)NC(=O)[C@@H](N)Cc1ccccc1)[C@@H](C)CC)C(=O)N[C@@H](CC(N)=O)C(=O)N[C@@H](C)C(=O)N[C@H](C(=O)N[C@@H](CO)C(=O)N[C@H](C(=O)N[C@@H](CC(C)C)C(=O)N[C@H](C(=O)N[C@@H](Cc1cnc[nH]1)C(=O)N[C@@H](Cc1cnc[nH]1)C(=O)N[C@@H](Cc1ccccc1)C(N)=O)C(C)C)[C@@H](C)O)C(C)C` [FLSLIPHAINAVSTLVHHF]: the MIC against Candida albicans was 15.1 µM (≈ 31.9 µg/mL); against Pseudomonas aeruginosa, 60.4 µM (≈ 128 µg/mL); against Staphylococcus aureus, 7.6 µM (≈ 16.1 µg/mL); in test [1], 3.7 µM (≈ 7.83 µg/mL); against Streptococcus agalactiae, 1.9 µM (≈ 4.02 µg/mL); in test [2] it was 15 µM (≈ 31.7 µg/mL). Further, in test [3], the MIC was ≥ 121 µM.
For `CC[C@H](C)[C@H](N)C(=O)N[C@@H](CCCCN)C(=O)N[C@@H](CCCCN)C(=O)N[C@H](C(=O)N[C@H](C(=O)N[C@@H](CO)C(=O)N[C@@H](CCCCN)C(=O)N[C@H](C(=O)N[C@@H](CCCCN)C(=O)N[C@@H](CCCCN)C(=O)N[C@@H](CC(C)C)C(=O)N[C@@H](CC(C)C)C(N)=O)[C@@H](C)CC)C(C)C)[C@@H](C)CC` [IKKIVSKIKKLL], the MIC in test [4] worked out at 6.25 µM (≈ 8.81 µg/mL); against Bacillus cereus AS1.126 it was 3.12 µM (≈ 4.4 µg/mL); in [5], 12.5 µM (≈ 17.6 µg/mL); in [6], 3.12 µM (≈ 4.4 µg/mL); in test [7], 3.12 µM (≈ 4.4 µg/mL); in test [8], 12.5 µM (≈ 17.6 µg/mL). Further, the MIC in [9] turned out to be 18.8 µM (≈ 26.4 µg/mL); in test [10], 6.25 µM (≈ 8.81 µg/mL); in [11], 6.25 µM (≈ 8.81 µg/mL); in [12], 6.25 µM (≈ 8.81 µg/mL); in test [13], 3.12 µM (≈ 4.4 µg/mL); in test [14], 3.12 µM (≈ 4.4 µg/mL). Moreover, the MIC is 3.12 µM (≈ 4.4 µg/mL) against Escherichia coli AS1.349, 3.13 µM (≈ 4.41 µg/mL) in [15], 25 µM (≈ 35.2 µg/mL) in test [16] and 3.12 µM (≈ 4.4 µg/mL) in test [17].
Consider `CC[C@H](C)[C@H](NC(=O)[C@@H]1CCCN1C(=O)[C@H](CC(C)C)NC(=O)[C@H](CC(C)C)NC(=O)[C@H](Cc1ccc(O)cc1)NC(=O)[C@H](CCCCN)NC(=O)[C@@H](N)CCCCN)C(=O)N[C@H](C(=O)NCC(=O)N[C@@H](CC(N)=O)C(=O)N[C@@H](CC(C)C)C(=O)N[C@@H](CC(C)C)C(=O)N[C@@H](CCCCN)C(=O)N[C@@H](CO)C(=O)N[C@@H](CC(C)C)C(=O)N[C@@H](CC(C)C)C(N)=O)C(C)C` [KKYLLPIVGNLLKSLL], for which the MIC in [18] came out at 11 µM (≈ 20 µg/mL); in [19] it was 5.52 µM (≈ 9.99 µg/mL); in the test on Listeria monocytogenes it was 5.52 µM (≈ 9.99 µg/mL); in test [20] it was 11 µM (≈ 20 µg/mL); in test [21], 13.8 µM (≈ 25 µg/mL); in test [22], 3.86 µM (≈ 7 µg/mL). In the test with Escherichia coli, this molecule had an MIC of 11 µM (≈ 20 µg/mL).
For `CC[C@H](C)[C@H](NC(=O)[C@H](Cc1ccccc1)NC(=O)[C@H](CC(N)=O)NC(=O)[C@H](CCCCN)NC(=O)[C@H](CCCN=C(N)N)NC(=O)[C@H](C)NC(=O)[C@H](CCCCN)NC(=O)[C@H](Cc1c[nH]c2ccccc12)NC(=O)[C@@H](N)CCCCN)C(=O)N[C@@H](CCCCN)C(=O)NCC(=O)N[C@@H](CO)C(=O)N[C@@H](CO)C(=O)N[C@@H](CC(C)C)C(=O)NCC(=O)N[C@@H](Cc1c[nH]c2ccccc12)C(=O)N[C@@H](CC(C)C)C(=O)N[C@H](C(=O)N[C@@H](CCC(N)=O)C(=O)N[C@@H](CC(C)C)C(=O)N[C@@H](Cc1ccccc1)C(=O)N[C@@H](CCCN=C(N)N)C(=O)N[C@@H](CCCCN)C(=O)N[C@@H](CCCN=C(N)N)C(=O)O)[C@@H](C)CC` [KWKARKNFIKGSSLGWLIQLFRKR], the MIC in the test on Escherichia coli P4 was 10.8 µM (≈ 32 µg/mL); with Enterobacter cloacae it was 15.3 µM (≈ 45.3 µg/mL); in the test on Serratia marcescens, ≥ 173 µM; with Pseudomonas aeruginosa, 43.2 µM (≈ 128 µg/mL); in [23], 21.6 µM (≈ 64 µg/mL); in the test with Klebsiella aerogenes it was 21.6 µM (≈ 64 µg/mL). In addition, the MIC (in test [2]; against Escherichia coli; against Klebsiella pneumoniae) was 15.3 µM (≈ 45.3 µg/mL) each time.
As to `CC(C)C[C@H](NC(=O)[C@H](CCCN=C(N)N)NC(=O)[C@H](CC(C)C)NC(=O)[C@H](CC(C)C)NC(=O)[C@H](CC(C)C)NC(=O)[C@H](CCCCN)NC(=O)[C@H](CC(C)C)NC(=O)[C@@H](N)CCCN=C(N)N)C(N)=O` [RLKLLLRL], in test [24], the MIC was ≥ 125 µM.
For `CC(C)C[C@H](NC(=O)CNC(=O)[C@H](Cc1ccccc1)NC(=O)[C@H](CCCN=C(N)N)NC(=O)[C@H](CCCN=C(N)N)NC(=O)[C@H](CC(C)C)NC(=O)[C@H](Cc1cnc[nH]1)NC(=O)[C@H](CCCN=C(N)N)NC(=O)CNC(=O)[C@@H](NC(=O)[C@H](C)NC(=O)[C@@H](N)CO)C(C)C)C(=O)N[C@@H](CCCN=C(N)N)C(=O)N[C@@H](CCCCN)C(=O)N[C@@H](Cc1cnc[nH]1)C(=O)N[C@@H](CCCN=C(N)N)C(=O)N[C@@H](CCCCN)C(=O)N[C@@H](Cc1cnc[nH]1)C(=O)O` [SAVGRHLRRFGLRKHRKH], the MIC in the test on Bacillus cereus AS1.126 is 6.25 µM (≈ 13.8 µg/mL); in [25] it was ≥ 100 µM; in test [6], ≥ 100 µM; in test [7], ≥ 100 µM; in [10] it was ≥ 100 µM; in [11] it was 12.5 µM (≈ 27.6 µg/mL). Also, the MIC in test [12] was 12.5 µM (≈ 27.6 µg/mL); in test [13], 9.38 µM (≈ 20.7 µg/mL); in [14], ≥ 100 µM; against Escherichia coli AS1.349 it was ≥ 100 µM; in test [26] it was ≥ 100 µM; in test [17] it was 18.8 µM (≈ 41.5 µg/mL).
`CC[C@H](C)[C@H](NC(=O)[C@@H](N)Cc1c[nH]c2ccccc12)C(=O)N[C@@H](CCC(N)=O)C(=O)N1CCC[C@H]1C(=O)N[C@@H](C)C(=O)N[C@H](C(=O)N[C@@H](CCCCN)C(=O)N[C@H](C(=O)N[C@H](C(=O)N1CCC[C@H]1C(=O)N[C@@H](Cc1ccc(O)cc1)C(=O)N[C@H](C(=O)N[C@@H](CCCN=C(N)N)C(=O)N[C@@H](Cc1ccc(O)cc1)C(=O)N[C@@H](CC(C)C)C(=O)O)C(C)C)[C@@H](C)CC)C(C)C)[C@@H](C)O` [WIQPATKVIPYVRYL]: the values for the MIC in test [27] and in [28] were ≥ 156 µM and ≥ 39.1 µM, respectively.

Values taken from DBAASP.
